Laboratory results taken from ChEMBL document CHEMBL1909046, “DrugMatrix in vitro pharmacology data”.
*1 amine or outer side, *2 acyl side, *3 side chain or, on linkers, in order; H or OH if unused. Where a SMILES comes first, the peptide text is derived from it. Bridges are numbered along the chain shown (N, C = ends). Roman numbers before positions name the chains, in order. [ ]: non-standard residue; d: D form. Actinocin(1to9) = Cc1c2oc3c(C)ccc(C(=O)[*:2])c3nc-2c(C(=O)[*:1])c(N)c1=O; NMeV = CN[C@H](C(=O)O)C(C)C; Sar = CNCC(=O)O

Key:
[1] = target: Beta-1 adrenergic receptor (Homo sapiens, UniProt P08588); assay: DRUGMATRIX: Adrenergic beta1 radioligand binding (ligand: [125I] Cyanopindolol); type: cell membranes, CHO-K1, Membrane; conditions: cho-k1; Not Active = under 50% inhibition at 10 µM
[2] = target: T1, Vasoactive intestinal polypeptide receptor 1 (Homo sapiens, UniProt P32241); type: cell membranes, Membrane; conditions: ht-29; also: in other assays of this panel Not Active means under 50% inhibition at 10 µM
T1 sequence (P32241 whole entry): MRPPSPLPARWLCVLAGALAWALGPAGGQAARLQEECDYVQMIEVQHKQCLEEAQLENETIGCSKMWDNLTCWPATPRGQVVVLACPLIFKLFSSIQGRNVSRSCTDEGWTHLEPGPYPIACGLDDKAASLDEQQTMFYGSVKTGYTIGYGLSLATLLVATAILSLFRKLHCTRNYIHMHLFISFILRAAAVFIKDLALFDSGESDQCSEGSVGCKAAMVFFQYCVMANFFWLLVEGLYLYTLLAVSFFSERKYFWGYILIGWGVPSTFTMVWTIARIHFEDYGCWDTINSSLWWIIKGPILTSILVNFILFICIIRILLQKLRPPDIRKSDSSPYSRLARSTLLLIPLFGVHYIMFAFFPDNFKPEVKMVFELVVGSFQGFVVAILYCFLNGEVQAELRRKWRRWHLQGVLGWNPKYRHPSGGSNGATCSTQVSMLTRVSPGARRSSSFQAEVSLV

Cannabinoid receptor 1 = Cannabinoid receptor 1 (Homo sapiens, UniProt P21554); type: cell membranes, Membrane; conditions: chem-1; also: in other assays of this panel Not Active means under 50% inhibition at 10 µM
[3] = target: C-C chemokine receptor type 5 (Homo sapiens, UniProt P51681); type: cell membranes, Membrane; conditions: hek293; also: in other assays of this panel Not Active means under 50% inhibition at 10 µM
[4] = DRUGMATRIX: GABAA, Flunitrazepam, Central radioligand binding (ligand: [3H] Flunitrazepam); type: cell membranes, Rattus norvegicus, Wistar, Brain, Membrane; conditions: Not Active = under 50% inhibition at 10 µM
[5] = DRUGMATRIX: Phosphodiesterase PDE3 enzyme inhibition (substrate: [3H]cAMP + cAMP); type: tissue-based, Homo sapiens; conditions: platelet; Not Active = under 50% inhibition at 10 µM
[6] = target: Epidermal growth factor receptor (Homo sapiens, UniProt P00533); assay: DRUGMATRIX: Protein Tyrosine Kinase, EGF Receptor enzyme inhibition (substrate: Poly(Glu:Tyr)); type: cell-based, Insect cells; conditions: insect cells; Not Active = under 50% inhibition at 10 µM
Cytochrome P450 3A4 = Cytochrome P450 3A4 (Homo sapiens, UniProt P08684); conditions: bti-tn-5b1-4; also: in other assays of this panel Not Active means under 50% inhibition at 10 µM
Chain of Cytochrome P450 3A4 (P08684 whole entry): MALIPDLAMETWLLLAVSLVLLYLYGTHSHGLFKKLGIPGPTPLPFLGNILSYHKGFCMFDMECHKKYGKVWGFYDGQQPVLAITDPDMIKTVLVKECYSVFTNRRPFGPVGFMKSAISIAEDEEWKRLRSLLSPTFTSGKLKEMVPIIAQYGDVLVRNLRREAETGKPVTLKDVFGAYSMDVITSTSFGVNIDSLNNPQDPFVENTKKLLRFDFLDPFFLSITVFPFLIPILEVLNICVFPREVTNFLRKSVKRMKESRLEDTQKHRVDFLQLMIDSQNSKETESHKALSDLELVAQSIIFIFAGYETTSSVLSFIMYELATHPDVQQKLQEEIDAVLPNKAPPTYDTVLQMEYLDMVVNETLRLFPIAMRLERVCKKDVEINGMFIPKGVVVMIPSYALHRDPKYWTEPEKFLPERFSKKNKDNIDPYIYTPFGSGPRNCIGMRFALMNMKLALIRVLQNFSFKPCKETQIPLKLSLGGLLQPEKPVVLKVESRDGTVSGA

Chain of Epidermal growth factor receptor (P00533 whole entry): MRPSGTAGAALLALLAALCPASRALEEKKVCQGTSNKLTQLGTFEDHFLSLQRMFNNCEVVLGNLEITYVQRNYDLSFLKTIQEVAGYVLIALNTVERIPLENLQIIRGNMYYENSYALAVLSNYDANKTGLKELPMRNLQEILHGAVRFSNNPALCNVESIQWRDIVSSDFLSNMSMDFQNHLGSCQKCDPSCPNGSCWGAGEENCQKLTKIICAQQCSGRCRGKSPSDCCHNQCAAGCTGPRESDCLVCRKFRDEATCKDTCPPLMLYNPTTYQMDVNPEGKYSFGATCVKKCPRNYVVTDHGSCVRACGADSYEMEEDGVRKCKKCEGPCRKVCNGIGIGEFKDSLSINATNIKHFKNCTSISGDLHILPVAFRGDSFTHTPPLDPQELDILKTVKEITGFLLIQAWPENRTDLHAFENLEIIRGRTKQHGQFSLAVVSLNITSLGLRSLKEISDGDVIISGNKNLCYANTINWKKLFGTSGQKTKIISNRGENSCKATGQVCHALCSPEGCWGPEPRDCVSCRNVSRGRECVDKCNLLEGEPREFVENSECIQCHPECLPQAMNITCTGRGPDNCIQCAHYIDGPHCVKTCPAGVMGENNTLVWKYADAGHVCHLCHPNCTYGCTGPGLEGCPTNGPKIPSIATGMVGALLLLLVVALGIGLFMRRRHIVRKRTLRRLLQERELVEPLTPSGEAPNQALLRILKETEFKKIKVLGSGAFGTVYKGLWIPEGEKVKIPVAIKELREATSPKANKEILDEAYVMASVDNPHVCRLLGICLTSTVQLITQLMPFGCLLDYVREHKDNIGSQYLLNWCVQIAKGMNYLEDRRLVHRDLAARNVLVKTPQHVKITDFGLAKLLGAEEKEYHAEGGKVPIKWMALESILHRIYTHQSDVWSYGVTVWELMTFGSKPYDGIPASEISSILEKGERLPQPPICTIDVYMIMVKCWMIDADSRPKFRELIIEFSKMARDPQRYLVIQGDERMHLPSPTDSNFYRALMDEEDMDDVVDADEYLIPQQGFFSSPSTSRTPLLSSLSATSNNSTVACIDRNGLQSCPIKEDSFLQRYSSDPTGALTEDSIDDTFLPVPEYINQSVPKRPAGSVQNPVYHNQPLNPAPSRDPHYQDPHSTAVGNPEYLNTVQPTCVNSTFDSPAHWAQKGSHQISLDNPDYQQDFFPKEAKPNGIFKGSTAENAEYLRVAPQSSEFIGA
Chain of Cannabinoid receptor 1 (P21554 whole entry): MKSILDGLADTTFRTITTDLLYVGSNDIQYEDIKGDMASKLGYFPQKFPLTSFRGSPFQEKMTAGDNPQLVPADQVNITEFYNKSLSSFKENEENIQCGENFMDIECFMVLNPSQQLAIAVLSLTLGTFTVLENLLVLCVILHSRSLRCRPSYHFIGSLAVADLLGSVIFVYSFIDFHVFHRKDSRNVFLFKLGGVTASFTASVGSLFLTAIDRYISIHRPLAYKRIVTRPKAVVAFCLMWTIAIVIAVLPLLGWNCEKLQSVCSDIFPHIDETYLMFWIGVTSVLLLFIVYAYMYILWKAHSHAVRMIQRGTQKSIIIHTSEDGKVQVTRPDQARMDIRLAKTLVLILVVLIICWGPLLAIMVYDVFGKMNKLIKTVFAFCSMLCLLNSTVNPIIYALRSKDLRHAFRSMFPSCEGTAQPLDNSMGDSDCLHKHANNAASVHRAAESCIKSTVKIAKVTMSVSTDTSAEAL
Chain of Beta-1 adrenergic receptor (P08588 whole entry): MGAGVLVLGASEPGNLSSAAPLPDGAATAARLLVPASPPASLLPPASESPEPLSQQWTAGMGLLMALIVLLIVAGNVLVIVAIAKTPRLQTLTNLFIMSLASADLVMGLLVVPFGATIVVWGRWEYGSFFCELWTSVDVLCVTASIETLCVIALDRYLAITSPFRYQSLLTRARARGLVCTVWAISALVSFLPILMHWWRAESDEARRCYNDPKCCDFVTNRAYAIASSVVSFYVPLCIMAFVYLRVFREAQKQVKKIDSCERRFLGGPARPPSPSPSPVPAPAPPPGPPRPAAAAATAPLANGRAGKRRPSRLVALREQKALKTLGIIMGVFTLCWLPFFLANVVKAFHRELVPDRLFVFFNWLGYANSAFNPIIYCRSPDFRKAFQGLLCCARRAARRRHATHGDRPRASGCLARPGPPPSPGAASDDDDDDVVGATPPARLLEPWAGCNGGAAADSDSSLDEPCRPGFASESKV
Chain of C-C chemokine receptor type 5 (P51681 whole entry): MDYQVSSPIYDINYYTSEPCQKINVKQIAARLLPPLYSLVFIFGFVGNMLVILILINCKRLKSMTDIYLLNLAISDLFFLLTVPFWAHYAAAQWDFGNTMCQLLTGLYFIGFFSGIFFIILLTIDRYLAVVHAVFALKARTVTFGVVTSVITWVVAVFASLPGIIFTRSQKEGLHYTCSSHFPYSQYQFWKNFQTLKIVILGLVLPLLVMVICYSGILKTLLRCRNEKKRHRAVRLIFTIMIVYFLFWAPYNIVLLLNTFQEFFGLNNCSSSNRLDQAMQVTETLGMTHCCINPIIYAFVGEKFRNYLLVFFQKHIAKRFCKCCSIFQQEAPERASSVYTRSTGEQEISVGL

Cc1onc(-c2ccccc2Cl)c1C(=O)N[C@@H]1C(=O)N2[C@@H]1SC(C)(C)[C@@H]2C(=O)O [CLOXACILLIN]
Not Active: IC50 [1] | IC50 [2] | IC50 (Cannabinoid receptor 1) | IC50 [3] | IC50 [4] | Ki [4] | IC50 [5] | Ki [5] | IC50 [6] | IC50 (Cytochrome P450 3A4) | Ki (Cytochrome P450 3A4)

CC1CC(OC(=O)C(O)c2ccccc2)CC(C)(C)C1 (stereo unspecified) [CYCLANDELATE]
Not Active: IC50 [1] | IC50 [2] | IC50 (Cannabinoid receptor 1) | IC50 [3] | IC50 [4] | Ki [4] | IC50 [5] | Ki [5] | IC50 [6] | IC50 (Cytochrome P450 3A4) | Ki (Cytochrome P450 3A4)

Cc1c2oc3c(C)ccc(C(=O)N[C@@H]4C(=O)N[C@H](C(C)C)C(=O)N5CCC[C@H]5C(=O)N(C)CC(=O)N(C)[C@@H](C(C)C)C(=O)O[C@@H]4C)c3nc-2c(C(=O)N[C@@H]2C(=O)N[C@H](C(C)C)C(=O)N3CCC[C@H]3C(=O)N(C)CC(=O)N(C)[C@@H](C(C)C)C(=O)O[C@@H]2C)c(N)c1=O [DACTINOMYCIN] (I: T[dV]P[Sar][NMeV] / II: T[dV]P[Sar][NMeV]; ester I:1-I:C, II:1-II:C; linker I:N-II:N via Actinocin(1to9))
Not Active: IC50 [1] | IC50 [2] | IC50 (Cannabinoid receptor 1) | IC50 [3] | IC50 [4] | Ki [4] | IC50 [5] | Ki [5] | IC50 [6] | IC50 (Cytochrome P450 3A4) | Ki (Cytochrome P450 3A4)

Cc1c(O)c(=O)ccn1C [DEFERIPRONE]
Not Active: IC50 [1] | IC50 [2] | IC50 (Cannabinoid receptor 1) | IC50 [3] | IC50 [4] | Ki [4] | IC50 [5] | Ki [5] | IC50 [6] | IC50 (Cytochrome P450 3A4) | Ki (Cytochrome P450 3A4)

O=c1oc2ccccc2c(O)c1Cc1c(O)c2ccccc2oc1=O [DICUMAROL]
Not Active: IC50 [1] | IC50 [2] | IC50 (Cannabinoid receptor 1) | IC50 [3] | IC50 [4] | Ki [4] | IC50 [5] | Ki [5] | IC50 [6] | IC50 (Cytochrome P450 3A4) | Ki (Cytochrome P450 3A4)

C[C@H]1O[C@@H](O[C@H]2[C@@H](O)C[C@H](O[C@H]3[C@@H](O)C[C@H](O[C@H]4CC[C@@]5(C)[C@H](CC[C@@H]6[C@@H]5C[C@@H](O)[C@]5(C)[C@@H](C7=CC(=O)OC7)CC[C@]65O)C4)O[C@@H]3C)O[C@@H]2C)C[C@H](O)[C@@H]1O [DIGOXIN]
Not Active: IC50 [1] | IC50 [2] | IC50 (Cannabinoid receptor 1) | IC50 [3] | IC50 [4] | Ki [4] | IC50 [5] | Ki [5] | IC50 [6] | IC50 (Cytochrome P450 3A4) | Ki (Cytochrome P450 3A4)

C[C@H]1c2cccc(O)c2C(=O)C2=C(O)[C@]3(O)C(=O)C(C(N)=O)=C(O)[C@@H](N(C)C)[C@@H]3[C@@H](O)[C@@H]21.O [DOXYCYCLINE]
Not Active: IC50 [1] | IC50 [2] | IC50 (Cannabinoid receptor 1) | IC50 [3] | IC50 [4] | Ki [4] | IC50 [5] | Ki [5] | IC50 [6] | IC50 (Cytochrome P450 3A4) | Ki (Cytochrome P450 3A4)

O=C(CCCN1CC=C(n2c(=O)[nH]c3ccccc32)CC1)c1ccc(F)cc1 [DROPERIDOL]
Not Active: IC50 [1] | IC50 [2] | IC50 (Cannabinoid receptor 1) | IC50 [3] | IC50 [4] | Ki [4] | IC50 [5] | Ki [5] | IC50 [6] | IC50 (Cytochrome P450 3A4) | Ki (Cytochrome P450 3A4)

OC(Cn1cncn1)(Cn1cncn1)c1ccc(F)cc1F [FLUCONAZOLE]
Not Active: IC50 [1] | IC50 [2] | IC50 (Cannabinoid receptor 1) | IC50 [3] | IC50 [4] | Ki [4] | IC50 [5] | Ki [5] | IC50 [6] | IC50 (Cytochrome P450 3A4) | Ki (Cytochrome P450 3A4)

CC(C)C(=O)Nc1ccc([N+](=O)[O-])c(C(F)(F)F)c1 [FLUTAMIDE]
Not Active: IC50 [1] | IC50 [2] | IC50 (Cannabinoid receptor 1) | IC50 [3] | IC50 [4] | Ki [4] | IC50 [5] | Ki [5] | IC50 [6] | IC50 (Cytochrome P450 3A4) | Ki (Cytochrome P450 3A4)

CC1(C)O[C@@H]2C[C@H]3[C@@H]4CCC5=CC(=O)CC[C@]5(C)[C@@]4(F)[C@@H](O)C[C@]3(C)[C@]2(C(=O)CCl)O1 [HALCINONIDE]
Not Active: IC50 [1] | IC50 [2] | IC50 (Cannabinoid receptor 1) | IC50 [3] | IC50 [4] | Ki [4] | IC50 [5] | Ki [5] | IC50 [6] | IC50 (Cytochrome P450 3A4) | Ki (Cytochrome P450 3A4)
